Measurements: ChEMBL document CHEMBL1201862, “PubChem BioAssay data set” (2004)
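Five compound concentrations were applied to cells in 96-well plates for 48 hours; endpoints were derived by simple linear interpolation of the resulting dose-response curve. GI50: concentration for 50% inhibition of growth.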 Activity calls are given as the source filed them. No stated cut-off is given here; in the data, active = GI50 up to about 1.1 µM and inactive = higher.

How the values were obtained:
Assay in all cases: NCI tumour cell line growth inhibition, 48 h
[1] = test system: ACHN
[2] = test system: DU-145
[3] = test system: HCC 2998
[4] = test system: HOP-92
[5] = test system: Hs-578T
[6] = test system: IGROV-1
[7] = test system: KM12
[8] = test system: MDA-MB-231
[9] = test system: MDA-MB-435
[10] = test system: MOLT-4
[11] = test system: NCI-H23
[12] = test system: OVCAR-3
[13] = test system: OVCAR-8
[14] = test system: RXF 393
[15] = test system: SF-268
[16] = test system: SK-MEL-5
[17] = test system: SK-OV-3
[18] = test system: U-251
[19] = test system: UACC-257
[20] = test system: T47D

| SMILES | GI50 [1] | GI50 [2] | GI50 [3] | GI50 [4] | GI50 [5] | GI50 [6] | GI50 [7] | GI50 [8] | GI50 [9] | GI50 [10] | GI50 [11] | GI50 [12] | GI50 [13] | GI50 [14] | GI50 [15] | GI50 [16] | GI50 [17] | GI50 [18] | GI50 [19] | GI50 [20] |
| --- | --- | --- | --- | --- | --- | --- | --- | --- | --- | --- | --- | --- | --- | --- | --- | --- | --- | --- | --- | --- |
| O=C(NCCC1CN(S(=O)(=O)C(F)(F)F)c2ccccc21)OCc1ccccc1 (stereo not given) | > 100 µM (inactive) | > 100 µM (inactive) | > 100 µM (inactive) | 77.4 µM (inactive) | 76.6 µM (inactive) | > 100 µM (inactive) | 83.4 µM (inactive) | > 100 µM (inactive) | > 100 µM (inactive) | 59.2 µM (inactive) | > 100 µM (inactive) | > 100 µM (inactive) | > 100 µM (inactive) | > 100 µM (inactive) | > 100 µM (inactive) | > 100 µM (inactive) | > 100 µM (inactive) | 83.9 µM (inactive) | > 100 µM (inactive) | – |
| CC1(C)CCC[C@]2(C)[C@@H]1CC[C@@]13O[C@@H]1C1=C(CO)C(=O)O[C@]14O[C@@H]4[C@@H]23 | 14.3 µM (inactive) | 14.3 µM (inactive) | 19.2 µM (inactive) | 14 µM (inactive) | – | 13.3 µM (inactive) | 18 µM (inactive) | 15.7 µM (inactive) | 10.4 µM (inactive) | 15.1 µM (inactive) | 11.7 µM (inactive) | 13.2 µM (inactive) | 12.9 µM (inactive) | 8.71 µM (inactive) | 15 µM (inactive) | 13.2 µM (inactive) | 16.7 µM (inactive) | 13.8 µM (inactive) | 14 µM (inactive) | 22 µM (inactive) |
| O=[N+]([O-])c1ccc(OCc2nnc(CCCCCCCCc3nnc(COc4ccc([N+](=O)[O-])cc4)o3)o2)cc1 | > 100 µM (inactive) | > 100 µM (inactive) | > 100 µM (inactive) | > 100 µM (inactive) | – | > 100 µM (inactive) | 55.3 µM (inactive) | 32.7 µM (inactive) | > 100 µM (inactive) | > 100 µM (inactive) | 81.5 µM (inactive) | > 100 µM (inactive) | – | 25.1 µM (inactive) | 44.5 µM (inactive) | > 100 µM (inactive) | 40.6 µM (inactive) | 95.9 µM (inactive) | > 100 µM (inactive) | – |
| COc1ccc(N[S+]([O-])CCc2ccccc2)cc1 (stereo not given) | > 100 µM (inactive) | > 100 µM (inactive) | 94 µM (inactive) | – | 23.4 µM (inactive) | 92.5 µM (inactive) | > 100 µM (inactive) | > 100 µM (inactive) | > 100 µM (inactive) | > 100 µM (inactive) | > 100 µM (inactive) | > 100 µM (inactive) | > 100 µM (inactive) | > 100 µM (inactive) | > 100 µM (inactive) | > 100 µM (inactive) | 4.35 µM (inactive) | > 100 µM (inactive) | > 100 µM (inactive) | – |
| O=C(COC(=O)c1cccc2c(=O)c3ccccc3[nH]c12)Nc1ccccc1 | 41.8 µM (inactive) | – | > 100 µM (inactive) | 45 µM (inactive) | – | > 100 µM (inactive) | 21.1 µM (inactive) | – | – | 17.1 µM (inactive) | 19.5 µM (inactive) | 53.2 µM (inactive) | 37 µM (inactive) | 33.1 µM (inactive) | > 100 µM (inactive) | 19.8 µM (inactive) | > 100 µM (inactive) | 71.4 µM (inactive) | 38.2 µM (inactive) | – |
| Cc1cc2c(c3nocc13)C(=O)c1ccccc1C2=O | > 100 µM (inactive) | – | > 100 µM (inactive) | 16.2 µM (inactive) | – | > 100 µM (inactive) | > 100 µM (inactive) | – | – | > 100 µM (inactive) | > 100 µM (inactive) | > 100 µM (inactive) | > 100 µM (inactive) | > 100 µM (inactive) | > 100 µM (inactive) | > 100 µM (inactive) | > 100 µM (inactive) | > 100 µM (inactive) | > 100 µM (inactive) | – |
| C/C=C(\CCOS(=O)(=O)c1ccc(C)cc1)[Si](C)(C)C | > 100 µM (inactive) | – | > 100 µM (inactive) | > 100 µM (inactive) | – | > 100 µM (inactive) | > 100 µM (inactive) | – | – | > 100 µM (inactive) | > 100 µM (inactive) | > 100 µM (inactive) | > 100 µM (inactive) | > 100 µM (inactive) | > 100 µM (inactive) | > 100 µM (inactive) | > 100 µM (inactive) | > 100 µM (inactive) | > 100 µM (inactive) | – |
| COc1ccc(-c2nnc(CCCCCCCCc3nnc(-c4ccc(OC)cc4)o3)o2)cc1 | > 100 µM (inactive) | > 100 µM (inactive) | > 100 µM (inactive) | 41.1 µM (inactive) | – | > 100 µM (inactive) | > 100 µM (inactive) | 18.3 µM (inactive) | > 100 µM (inactive) | > 100 µM (inactive) | > 100 µM (inactive) | > 100 µM (inactive) | 57.9 µM (inactive) | – | > 100 µM (inactive) | > 100 µM (inactive) | 54.2 µM (inactive) | 27.6 µM (inactive) | > 100 µM (inactive) | – |
| NC1=C(c2nc(-c3ccccc3)cs2)C(c2ccco2)c2c(c3ccccc3oc2=O)O1 (stereo not given) | > 100 µM (inactive) | > 100 µM (inactive) | > 100 µM (inactive) | 53.3 µM (inactive) | 3.32 µM (inactive) | > 100 µM (inactive) | – | > 100 µM (inactive) | > 100 µM (inactive) | – | > 100 µM (inactive) | > 100 µM (inactive) | > 100 µM (inactive) | 40.5 µM (inactive) | > 100 µM (inactive) | > 100 µM (inactive) | > 100 µM (inactive) | > 100 µM (inactive) | > 100 µM (inactive) | – |
| CC(C)c1c(O[Si](C(C)C)(C(C)C)C(C)C)c2c3c(ccc4c3c1OC4(C)C)C(C)CC2 (stereo not given) | > 100 µM (inactive) | > 100 µM (inactive) | – | > 100 µM (inactive) | > 100 µM (inactive) | > 100 µM (inactive) | > 100 µM (inactive) | > 100 µM (inactive) | > 100 µM (inactive) | > 100 µM (inactive) | > 100 µM (inactive) | > 100 µM (inactive) | > 100 µM (inactive) | > 100 µM (inactive) | > 100 µM (inactive) | > 100 µM (inactive) | > 100 µM (inactive) | > 100 µM (inactive) | > 100 µM (inactive) | – |
| CC(C)C/C(CC(=O)CCC(=O)Nc1ccccc1[N+](=O)[O-])=N\NC(=O)c1cc2ccccc2cc1O | 34.1 µM (inactive) | – | 36.6 µM (inactive) | 64 µM (inactive) | – | 26 µM (inactive) | 67.6 µM (inactive) | – | – | 20.2 µM (inactive) | 50.7 µM (inactive) | 26.7 µM (inactive) | 23.1 µM (inactive) | 9.79 µM (inactive) | 38 µM (inactive) | 28.1 µM (inactive) | 79.6 µM (inactive) | 39.2 µM (inactive) | 37 µM (inactive) | – |
| COc1cc([C@@H]2c3cc4c(cc3[C@@H](Nc3ccc(/N=C\c5ccc(C(=O)O[C@@H](C(=O)O[C@H]6C[C@@]7(O)[C@@H](OC(=O)c8ccccc8)[C@@H]8[C@]9(OC(C)=O)CO[C@@H]9C[C@H](O)[C@@]8(C)C(=O)[C@H](OC(C)=O)C(=C6C)C7(C)C)[C@@H](NC(=O)c6ccccc6)c6ccccc6)cc5)cc3)[C@H]3COC(=O)[C@H]23)OCO4)cc(OC)c1O | 0.455 µM (active) | 2.68 µM (inactive) | 14.9 µM (inactive) | 6.38 µM (inactive) | – | 12.4 µM (inactive) | 15.8 µM (inactive) | 20.7 µM (inactive) | 0.208 µM (active) | 0.14 µM (active) | 2.75 µM (inactive) | 15.9 µM (inactive) | 6.15 µM (inactive) | 6.12 µM (inactive) | 4.34 µM (inactive) | 2.96 µM (inactive) | 2.78 µM (inactive) | 3.34 µM (inactive) | 28.6 µM (inactive) | 11.4 µM (inactive) |
| [O-][S+](CCc1ccccc1)Nc1ccccc1 (stereo not given) | > 100 µM (inactive) | > 100 µM (inactive) | > 100 µM (inactive) | – | 0.0406 µM (active) | > 100 µM (inactive) | > 100 µM (inactive) | > 100 µM (inactive) | > 100 µM (inactive) | > 100 µM (inactive) | > 100 µM (inactive) | > 100 µM (inactive) | > 100 µM (inactive) | 55.5 µM (inactive) | > 100 µM (inactive) | > 100 µM (inactive) | – | > 100 µM (inactive) | 99.3 µM (inactive) | – |
| CSc1ncnc2c1ncn2CCC(=O)OC(C)(C)C | > 100 µM (inactive) | > 100 µM (inactive) | > 100 µM (inactive) | > 100 µM (inactive) | – | > 100 µM (inactive) | > 100 µM (inactive) | > 100 µM (inactive) | > 100 µM (inactive) | > 100 µM (inactive) | > 100 µM (inactive) | > 100 µM (inactive) | > 100 µM (inactive) | > 100 µM (inactive) | > 100 µM (inactive) | > 100 µM (inactive) | > 100 µM (inactive) | – | > 100 µM (inactive) | > 100 µM (inactive) |
| COC(=O)C1=C(CCCCO[Si](C)(C)C(C)(C)C)NC(=O)N2[C@H](CCOCc3ccccc3)CC[C@@H]12 | > 100 µM (inactive) | 75.2 µM (inactive) | > 100 µM (inactive) | 32.1 µM (inactive) | – | – | 49.5 µM (inactive) | 44.9 µM (inactive) | 39.2 µM (inactive) | > 100 µM (inactive) | 17.6 µM (inactive) | 29.4 µM (inactive) | – | – | > 100 µM (inactive) | 13 µM (inactive) | > 100 µM (inactive) | 23.7 µM (inactive) | 24.7 µM (inactive) | 35.4 µM (inactive) |
